The source made the active and inactive calls.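 Rule for the calls: active = caspase luminescence falls with dose and the half-maximal concentration AC50 from the fitted curve is at or below a set limit; inconclusive = flat fit at 30 to 70% signal loss, or invalid fit; inactive = AC50 above the limit, or signal rises instead.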
Tested on: INS-1E cytokine-induced caspase-3/7, Caspase-Glo luminescence, 48 h
Assay: inhibitors of cytokine-induced caspase-3/7 activity, dose response, orthogonal assay for beta-cell apoptosis protection project, INS-1E rat cells, luminescence (AID 463206)

SMILES	AC50
COc1ccc(N/N=C/c2c(C(=O)O)ccc3ccccc23)cc1	> 26 µM (inactive)
CCC(=O)NC(c1cc(Cl)c2cccnc2c1O)C(C)C (stereo not given)	> 26 µM (inactive)
Cc1cc(N2CCC(C)CC2)nc(NCc2ccccc2)n1	19.6 µM
COc1ccc(CC(=O)Nc2cccc(-c3nnc(-c4cccc(C)c4)o3)c2)cc1OC	> 26 µM (inactive)
CC1(C)N=C(N)N=C(N)N1c1ccc(OCCCOc2ccccc2)c(Cl)c1	> 26 µM (inactive)
COc1ccc(S(=O)(=O)Nc2ccc3oc(C)c(C(C)=O)c3c2)cc1	22.6 µM
O=C(N/N=C/c1ccc(O)cc1O)/C(=C/c1ccccc1)CCO	> 26 µM (inactive)
CCC(=O)NC(c1cc(Cl)c2cccnc2c1O)C1CC1 (stereo not given)	> 26 µM (inactive)
CCOC(=O)COc1ccc2ccccc2c1/C=C/[N+](=O)[O-]	> 26 µM (inactive)
CCOC(=O)c1sc(NC(=O)Nc2cccc(Cl)c2)cc1C	> 26 µM (inactive)
Clc1ccc(-c2cc(-c3nnc4n3CCCCC4)c3ccccc3n2)cc1	> 26 µM (inactive)
Cc1nc2ccccc2n1/N=C/c1ccc([N+](=O)[O-])s1	> 26 µM (inactive)
O=[N+]([O-])c1ccc(Sc2cccc3cccnc23)c([N+](=O)[O-])c1	> 26 µM (inactive)
COc1cnc(-c2ccccn2)nc1Sc1ccccc1Cl	> 26 µM (inactive)
O=C1CSC(c2cccnc2)N1CC1CC1 (stereo not given)	> 26 µM (inactive)
Nc1ccc(Br)cc1-c1nc2ccccc2[nH]c1=O	> 26 µM (inactive)
Cc1sc2ncnc(NCC(O)c3ccc([N+](=O)[O-])cc3)c2c1C (stereo not given)	> 26 µM (inactive)
Cc1ccc(C(=O)Nc2cccc3[nH]c(C(F)(F)F)nc23)cc1	> 26 µM (inactive)
COc1ccc(C(NC(C)=O)c2cc(Cl)c3cccnc3c2O)cc1 (stereo not given)	> 26 µM (inactive)
COc1ccc(CNC[C@@H](CCCCN(C)Cc2ccc(OC)cc2)N2C[C@H](c3ccccc3)N(CCc3ccc(Cl)c(Cl)c3)C(=O)C2=O)cc1	> 26 µM (inactive)
CCOc1cc(CNCCc2ccc(S(N)(=O)=O)cc2)ccc1OCc1ccc(Cl)cc1	> 26 µM (inactive)
Cc1cc(C)cc(OCCCn2ccnc2)c1	> 26 µM (inactive)
COc1ccc(Cc2nnc(N/N=C/c3ccccc3O)[nH]c2=O)cc1OC	> 26 µM (inactive)
Cc1cc(N/N=C/c2cccc(Cl)c2)nc(-n2nc(C)cc2C)n1	> 26 µM (inactive)

SMILES	AC50
Cn1nc(-c2ccc(Cl)cc2)nc2c(=O)n(C)c(=O)nc1-2	> 26 µM (inactive)
C=C1C(=O)O[C@H]2C[C@@H](C)[C@@H]3C=CC(=O)[C@@]3(C)C[C@H]12	2.83 µM
CCSC1=NCCN1C(=O)C(C)(C)Oc1ccc(Cl)cc1	> 26 µM (inactive)
Cc1ccc2nc(-c3ccc(-c4cccc(Cl)c4)cc3)c(NCc3ccccc3)n2c1	> 26 µM (inactive)
CC1=NOC(=O)/C1=C/c1ccc(-c2ccc(Cl)cc2)o1	> 26 µM (inactive)
CN1CCN(C2=C(NS(=O)(=O)c3cccs3)C(=O)c3ccccc3C2=O)CC1	> 26 µM (inactive)
CCn1c(=O)c(C(=O)Nc2nc3ccccc3[nH]2)c(O)c2ccccc21	> 26 µM (inactive)
COc1cccc(C(=O)N/N=C(/c2ccccc2)c2ccccn2)c1	> 26 µM (inactive)
O=C(N/N=C(\c1ccccc1)c1ccccn1)c1ccccc1Cl	> 26 µM (inactive)
CCCC(=O)NC(c1ccccc1Cl)c1ccc2cccnc2c1O (stereo not given)	> 26 µM (inactive)
Cc1cccc(CSC(Nc2ccc(F)cc2)=C(C#N)C#N)c1	> 26 µM (inactive)
CC(C)(C)c1cc(C(=O)N/N=C/c2ccc([N+](=O)[O-])s2)n[nH]1	> 26 µM (inactive)
CCOc1ccc(-n2c(-c3ccccc3)c[n+]3c2CCC3)cc1	> 26 µM (inactive)
CN(C)S(=O)(=O)c1ccc(Oc2ccc(S(=O)(=O)N(C)C)cc2)cc1	> 26 µM (inactive)
CCCCN(C)CCNC(=O)c1cc2c(-c3ccccc3F)nn(C)c2s1	> 12 µM (inactive)
Cc1nn(S(=O)(=O)c2ccc(Cl)cc2)c(C)c1Sc1ccc([N+](=O)[O-])cc1	> 26 µM (inactive)
N#CC(c1cccc(Cl)c1)c1ccc2c(C(F)(F)F)cc(C(F)(F)F)nc2n1 (stereo not given)	> 26 µM (inactive)
CSc1ccccc1OCc1cc(C(=O)N2CCc3c(Cl)cccc3C2)no1	> 26 µM (inactive)
O=C(Nc1ccc(Cl)cc1)Nc1ccc(N2CCCC2)c(S(=O)(=O)Nc2ccccc2Cl)c1	> 26 µM (inactive)
COc1ccc(CNC(=O)c2c(C)oc3c2C(=O)c2ccccc2C3=O)cc1	> 26 µM (inactive)
CCCNC(=O)c1ccc2c(=O)c(O)c(-c3ccc(Cl)c([N+](=O)[O-])c3)[nH]c2c1	3.22 µM
CCCCC(CC)CN1C(=O)/C(=C/c2ccncc2)SC1=S (stereo not given)	> 26 µM (inactive)
CCN(CC)c1ccc2nc3ccccc3[n+](CC)c2c1	> 26 µM (inactive)
CCC(C)Sc1ccc(-c2nc3ccc(C)cn3c2NCc2ccccc2)cc1OC (stereo not given)	> 26 µM (inactive)

SMILES	AC50
CCC1(c2ccc(F)cc2)NC(=O)N(CC(=O)Nc2ccc(-c3nc4ccc(C)cc4s3)cc2)C1=O (stereo not given)	> 26 µM (inactive)
Cc1csc2ncnc(N3CCN(S(=O)(=O)c4cccc(C(F)(F)F)c4)CC3)c12	> 26 µM (inactive)
Cn1c(-c2ccccc2)cc2c3no[n+]([O-])c3ccc21	> 26 µM (inactive)
N/C(=N\OC(=O)c1cccc(Cn2cc(C(F)(F)F)ccc2=O)c1)c1ccc(Cl)cc1	> 26 µM (inactive)
COc1ccc2nc(C)cc(N/N=C/c3ccccc3)c2c1	10.1 µM
Cc1nn(C)c(C)c1CN(Cc1nc(CCC(C)C)no1)C(C)C	> 26 µM (inactive)
CC(=O)NC(c1cccs1)c1cc([N+](=O)[O-])c2cccnc2c1O (stereo not given)	> 26 µM (inactive)
CCS(=O)(=O)c1ccc(OC)c(N=Nc2ccc(O)c3ncccc23)c1	> 26 µM (inactive)
Cc1ccc2c(C)ccc(O)c2n1	> 26 µM (inactive)
Cc1ccc(-n2c(-c3ccccc3)c[n+]3c2CCc2ccccc2-3)c(C)c1	> 26 µM (inactive)
c1ccc(-c2nnc3sc(-c4csc5c4CCCC5)nn23)cc1	> 26 µM (inactive)
O=C(OCn1ncc(Cl)c(Cl)c1=O)c1ccc(F)cc1	> 26 µM (inactive)
COc1ccc(OC)c2sc(N(CCCN(C)C)C(=O)c3ccc(S(=O)(=O)N4CCc5ccccc5C4)cc3)nc12	> 26 µM (inactive)
C/C(=N\Nc1nc(-c2ccccn2)nc2ccccc12)c1ccc(F)cc1	> 26 µM (inactive)
Cc1ccc(C(=O)N/C(=C\c2ccc(-c3ccccc3[N+](=O)[O-])o2)C(=O)NCCCN2CCOCC2)cc1	> 26 µM (inactive)
O=[N+]([O-])c1cc(Cl)cc(/C=N\Nc2ccccn2)c1O	> 26 µM (inactive)
O=C(CN1CCOCC1)N/N=C/c1c(O)ccc2ccccc12	> 26 µM (inactive)
Cc1ccccc1/C=N/Nc1ccnc2cc(Cl)ccc12	> 26 µM (inactive)
CN(C)CCCN(C(=O)COc1ccc(Cl)cc1)c1nc2cc3c(cc2s1)OCO3	> 26 µM (inactive)
CC[C@@H](C(=O)[C@@H](C)[C@@H](O)[C@H](C)CCc1ccc(C)c(O)c1C(=O)O)[C@H]1O[C@](CC)([C@H]2CC[C@](O)(CC)[C@H](C)O2)C[C@@H]1C	> 12 µM (inactive)
CCc1ccc(-c2nn(-c3ccccc3)cc2CSC(=N)N)cc1	> 26 µM (inactive)
O=[N+]([O-])c1ccc(N2CCN(CCOc3nonc3-c3ccccc3)CC2)c(Cl)c1	> 26 µM (inactive)
CCCCOc1ccc(-c2cc(C(=O)NNC(=S)NCC)c3ccccc3n2)cc1	> 26 µM (inactive)
CC(=O)N(Cc1ccc(F)cc1)C1=C(NCCc2ccccc2)C(=O)c2ccccc2C1=O	> 26 µM (inactive)

SMILES	AC50
CCCCCCCCCCCCn1ccc(=N)cc1	> 26 µM (inactive)
CCn1c(=O)c(C(=O)Nc2ccccn2)c(O)c2ccccc21	> 26 µM (inactive)
COc1ccc(C(CCN2CCCCC2)c2c(OC)cc(OC)c3c(-c4ccccc4)cc(=O)oc23)cc1 (stereo not given)	16.6 µM
OC(c1cc(-c2ccc(C(F)(F)F)cc2)nc(C(F)(F)F)c1)C1CCCCN1 (stereo not given)	> 26 µM (inactive)
CCN(CC)S(=O)(=O)c1ccc(N/N=C/c2cc(OC)ccc2O)nc1	> 26 µM (inactive)
c1cnc(N2CCN(Cc3c[nH]c4ccccc34)CC2)nc1	> 26 µM (inactive)
C(=C\c1nc(N2CCCCCC2)c2ccccc2n1)/c1ccccc1	> 26 µM (inactive)
CCOc1ccc(CN2CCN(Cc3c[nH]c4ccccc34)CC2)cc1	> 26 µM (inactive)
O=C(N/N=C/c1cccc(F)c1)c1c(O)c2ccccc2[nH]c1=O	> 26 µM (inactive)
CCN(CC)c1ccc(C(=O)N/N=C/c2ccccc2OC(F)F)cc1	> 26 µM (inactive)
CCCC(C)C(=O)Nc1nc(C)c(-c2csc(Nc3ccc(Cl)cc3)n2)s1 (stereo not given)	> 26 µM (inactive)
Cc1ccc(Nc2nc(NCc3ccco3)c3ccccc3n2)cc1	> 12 µM (inactive)
O=C(NCc1cccnc1)/C(=C/c1ccc(-c2cccc(Cl)c2)o1)S(=O)(=O)c1ccccc1	> 26 µM (inactive)
COc1ccc(/C=C/C(=O)NC(=S)Nc2ccccc2C(=O)NC2CCCCC2)cc1	> 26 µM (inactive)
CCCCC(=O)N1C/C=C\C(c2ccc(OC)cc2)N(Cc2ccc(F)cc2)C(=O)[C@H]1Cc1ccccc1 (stereo not given in full)	> 26 µM (inactive)
CCc1ccc(OC)c(S(=O)(=O)Nc2ccc(Cc3ccncc3)cc2)c1	> 26 µM (inactive)
COc1c(CC=C(C)C)cc(C2CC(=O)c3c(O)cc(O)cc3O2)cc1CC=C(C)C (stereo not given)	> 26 µM (inactive)
CCCCCCCCCCn1c2c(c(=N)c3c1CCC3)CCC2	> 26 µM (inactive)
CCOc1ccc(-n2c(O)c(/C=N/Nc3nc(C)cc(C)n3)c3ccccc3c2=O)cc1	> 26 µM (inactive)
Cc1nc2c(-c3ccc(Cl)cc3)c(C)[nH]n2c(=O)c1Cc1ccccc1	> 26 µM (inactive)
CCN(c1ccccc1)S(=O)(=O)c1ccc(NC(=O)c2nc(S(C)(=O)=O)ncc2Cl)cc1	> 26 µM (inactive)
O=C(N/N=C/c1ccc([N+](=O)[O-])o1)c1cc2ccccc2o1	> 26 µM (inactive)
N#CC(C#N)=C(Nc1ccc(F)cc1)SCc1cccc(Br)c1	> 26 µM (inactive)

Reference: PubChem BioAssay AID463206 (Broad Institute, 2010)
